IC50 data for 25 compounds are collected here from US20140357633A1, “COMPOUNDS FOR INHIBITING THE INTERACTION OF BCL2 WITH BINDING PARTNERS” (NOVARTIS AG, priority 2011, published 2014).

Each structure is given as a SMILES string. “And” between values parts separate entries of the source, which are not always exact repeats. Identical values can stand only once.

Experiment [1] deals with BCL-2 (binding to BAD peptide) (Homo sapiens, UniProt P10415). The experiment in a line: SPR (Biacore) solution inhibition assay, BCL-2 binding to immobilized BAD peptide. The conditions noted are these: biotinylated BAD peptide surface, 56 nM BCL-2, 25° C.; range = high and low IC50 values from multiple experiments; read-out: BCL2_SPR IC50 BAD. The essentials: (§1)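 Compounds (6-point threefold series, 16 μM to 0.004 nM) preincubated 1 h with 56 nM BCL-2, then injected 60 s over biotinylated peptide captured on streptavidin chips at 25° C. Running buffer: 10 mM HEPES pH 7.4, 150 mM NaCl, 1.25 mM DTT, 3% DMSO, 0.05% polysorbate 20. % inhibition versus BCL-2-only binding gave IC50.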

Experiment [2] addresses BCL-2 (binding to BAK peptide) (Homo sapiens, UniProt P10415). The experiment in a line: SPR (Biacore) solution inhibition assay, BCL-2 binding to immobilized BAK peptide. The conditions noted are these: biotinylated BAK peptide surface, 56 nM BCL-2, 25° C.; range = high and low IC50 values from multiple experiments; read-out: BCL2_SPR IC50 BAK. In a few lines:
as §1

BCL-2 (binding to BAD peptide), sequence (P10415 whole entry): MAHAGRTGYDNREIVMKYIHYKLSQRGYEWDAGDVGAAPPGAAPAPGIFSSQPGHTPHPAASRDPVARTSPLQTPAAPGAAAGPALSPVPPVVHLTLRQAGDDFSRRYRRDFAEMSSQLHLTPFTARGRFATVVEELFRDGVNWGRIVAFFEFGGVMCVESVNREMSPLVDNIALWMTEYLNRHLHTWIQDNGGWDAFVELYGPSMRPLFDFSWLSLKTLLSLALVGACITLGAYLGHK
BCL-2 (binding to BAK peptide), sequence (P10415 whole entry): as above

For the compound `CCCCN(CCCC)C(=O)c1cc(C)n(-c2ccc(NC(=O)C(CC(N)=O)c3ccccc3)cc2C(=O)N2Cc3ccccc3C[C@H]2CO)n1` (some centres unmarked) [Example 117], the IC50 is 0.0821 to 0.0888 µM in experiment [1] and 0.0675 to 0.0714 µM in experiment [2].

For the compound `CCCCN(CCCC)C(=O)c1cc(C)n(-c2ccc(NC(=O)CCc3nc(-c4ccccc4)no3)cc2C(=O)N2Cc3ccccc3C[C@H]2CO)n1` [Example 60], the IC50 in experiment [1] was in the range of 0.111 to 0.12 µM; in experiment [2], 0.0952 to 0.0967 µM.

Turning to `CCCCN(CCCC)C(=O)c1cc(C)n(-c2ccc(NC(=O)C3(c4ccccc4)CC3)cc2C(=O)N2Cc3ccccc3C[C@H]2CO)n1` [Example 30], the results for the IC50 in experiment [1] and in experiment [2] were 0.252 to 0.267 µM and 0.204 to 0.24 µM, respectively.

Turning to `CCCCN(CCCC)C(=O)c1cc(C)n(-c2ccc(NC(=O)Cc3cccnc3)cc2C(=O)N2Cc3ccccc3C[C@H]2CO)n1` [Example 118], the half-inhibitory concentration (IC50) in experiment [1] fell in the range of 0.164 to 0.171 µM; in experiment [2] it was 0.139 to 0.153 µM.

With `CCCCC(CCCC)C(=O)c1cc(C)n(-c2ccc(NC(=O)COc3cccc4ccccc34)cc2C(=O)N2Cc3ccccc3C[C@H]2CO)n1` [Example 110], the half-maximal inhibitory concentration (IC50) in experiment [1] lay within 0.273 to 0.318 µM; in experiment [2], 0.25 to 0.272 µM.

With `CCCCN(CCCC)C(=O)c1cc(C)n(-c2ccc(NC(=O)c3cc(OC)cc([N+](=O)[O-])c3OC)cc2C(=O)N2Cc3ccccc3C[C@H]2CO)n1` [Example 132], the IC50 lay in the range of 0.332 to 0.338 µM in experiment [1] and 0.246 to 0.248 µM in experiment [2].

On to `CCCCN(CCCC)C(=O)c1cc(C)n(-c2ccc(NC(=O)Cc3ccc4ccccc4c3)cc2C(=O)N2Cc3ccccc3C[C@H]2CN)n1` [Example 54], for which the half-maximal inhibitory concentration (IC50) in experiment [1] is 0.0669 to 0.0677 µM and 0.0698 to 0.0798 µM; in experiment [2] it was 0.0581 to 0.0593 µM and 0.0589 to 0.0688 µM.

For `CCCCN(CCCC)C(=O)c1cc(C)n(-c2ccc(NC(=O)c3ccc(Oc4ccccc4)nc3)cc2C(=O)N2Cc3ccccc3C[C@H]2CO)n1` [Example 141], the IC50 in experiment [1] lay within 2.47 to 2.63 µM; in experiment [2] it was 1.97 to 2.07 µM.

Turning to `CCCCN(CCCC)C(=O)c1cc(C)n(-c2ccc(NC(=O)c3ccc(NS(=O)(=O)Cc4ccccc4)cc3)cc2C(=O)N2Cc3ccccc3C[C@H]2CO)n1` [Example 143], the half-maximal inhibitory concentration (IC50) in experiment [1] fell in the range of 0.455 to 0.539 µM; in experiment [2] it was 0.426 to 0.594 µM.

As to `CCCCN(CCCC)C(=O)c1cc(C)n(-c2ccc(NC(=O)COc3cccnc3)cc2C(=O)N2Cc3ccccc3C[C@H]2CO)n1` [Example 32], the half-inhibitory concentration (IC50) in experiment [1] fell in the range of 0.234 to 0.245 µM; in experiment [2] it was 0.203 to 0.205 µM.

Regarding `CCCCN(CCCC)C(=O)c1cc(C)n(-c2ccc(NC(=O)c3cn4ccccc4n3)cc2C(=O)N2Cc3ccccc3C[C@H]2CO)n1` [Example 58], the IC50 in experiment [1] was in the range of 0.249 to 0.282 µM; in experiment [2], 0.204 to 0.205 µM.

Turning to `CCCCN(CCCC)C(=O)c1cc(C)n(-c2ccc(NC(=O)CC(C)S(=O)(=O)c3ccc(Cl)cc3)cc2C(=O)N2Cc3ccccc3C[C@H]2CO)n1` (some centres unmarked) [Example 90], the IC50 in experiment [1] is 0.156 to 0.21 µM; in experiment [2] it was 0.159 to 0.187 µM.

For `CCCCN(CCCC)C(=O)c1cc(C)n(-c2ccc(NC(=O)Cc3cccc(OC)c3)cc2C(=O)N2Cc3ccccc3C[C@H]2CO)n1` [Example 69], the results for the IC50 in experiment [1] and in experiment [2] were 0.0913 to 0.101 µM and 0.0673 to 0.0739 µM, respectively.

Consider `CCCCN(CCCC)C(=O)c1cc(C)n(-c2ccc(NC(=O)C(Cc3ccccc3)C(=O)O)cc2C(=O)N2Cc3ccccc3C[C@H]2CO)n1` (some centres unmarked) [Example 34], for which the IC50 in experiment [1] lay within 0.0676 to 0.0678 µM; in experiment [2], 0.0634 to 0.0722 µM.

Take `CCCCN(CCCC)C(=O)c1cc(C)n(-c2ccc(NC(=O)CC3CCCCC3)cc2C(=O)N2Cc3ccccc3C[C@H]2CO)n1` [Example 28]: the IC50 was in the range of 0.264 to 0.296 µM in experiment [1] and 0.291 to 0.325 µM in experiment [2].

For the compound `CCCCN(CCCC)C(=O)c1cc(C)n(-c2ccc(NC(=O)COc3ccccc3C#N)cc2C(=O)N2Cc3ccccc3C[C@H]2CO)n1` [Example 66], the IC50 in experiment [1] is 0.142 µM; in experiment [2], 0.106 to 0.116 µM.

Take `CCCCN(CCCC)C(=O)c1cc(C)n(-c2ccc(NC(=O)c3nn(-c4ccccc4)c(=O)cc3O)cc2C(=O)N2Cc3ccccc3C[C@H]2CO)n1` [Example 94]: the figures for the half-maximal inhibitory concentration (IC50) in experiment [1] and in experiment [2] were 0.0257 to 0.0317 µM and 0.0307 to 0.0311 µM, respectively.

On to `CCCCC(CCCC)C(=O)c1cc(C)n(-c2ccc(NC(=O)C(CC(=O)O)C3CCCCC3)cc2C(=O)N2Cc3ccccc3C[C@H]2CO)n1` (some centres unmarked) [Example 103], for which the IC50 lay within 0.0541 to 0.0559 µM in experiment [1] and 0.0502 to 0.0519 µM in experiment [2].

As to `CCCCN(CCCC)C(=O)c1cc(C)n(-c2ccc(NC(=O)Cc3ccc(O)cc3)cc2C(=O)N2Cc3ccccc3C[C@H]2CO)n1` [Example 157], the IC50 in experiment [1] lay within 0.0803 to 0.0934 µM; in experiment [2], 0.0647 to 0.0753 µM.

Consider `CCCCN(CCCC)C(=O)c1cc(C)n(-c2ccc(NC(=O)Oc3ccccc3)cc2C(=O)N2Cc3ccccc3C[C@H]2CO)n1` [Example 10], for which the half-inhibitory concentration (IC50) lay within 0.501 to 0.522 µM in experiment [1] and 0.283 to 0.308 µM in experiment [2].

Regarding `CCCCN(CCCC)C(=O)c1cc(C)n(-c2ccc(NC(=O)c3n[nH]c4c3CCC4)cc2C(=O)N2Cc3ccccc3C[C@H]2CO)n1` [Example 112], the half-maximal inhibitory concentration (IC50) lay in the range of 0.964 to 1.03 µM in experiment [1] and 0.696 to 0.875 µM in experiment [2].

Turning to `CCCCN(CCCC)C(=O)c1cc(C)n(-c2ccc(NC(=O)COc3ccc(OCc4ccccc4)cc3)cc2C(=O)N2Cc3ccccc3C[C@H]2CO)n1` [Example 20], the values for the IC50 in experiment [1] and in experiment [2] were 1.22 to 1.81 µM and 1.22 to 2.07 µM, respectively.

With `CCCCN(CCCC)C(=O)c1cc(C)n(-c2ccc(NC(=O)COc3ccccc3Cl)cc2C(=O)N2Cc3ccccc3C[C@H]2CO)n1` [Example 23], the IC50 in experiment [1] is 4.85 to 4.93 µM; in experiment [2], 3.9 to 4.17 µM.

As to `CCCCN(CCCC)C(=O)c1cc(C)n(-c2ccc(NC(=O)c3oc(C)nc3C)cc2C(=O)N2Cc3ccccc3C[C@H]2CO)n1` [Example 108], the IC50 in experiment [1] is 1.02 to 1.12 µM and 0.691 to 0.73 µM; in experiment [2] it was 0.629 to 0.841 µM and 0.429 to 0.43 µM.

For `CCCCN(CCCC)C(=O)c1cc(C)n(-c2ccc(NC(=O)Cc3ccc(Cl)cc3)cc2C(=O)N2Cc3ccccc3C[C@H]2CO)n1` [Example 137], the concentration for half-maximal inhibition (IC50) in experiment [1] was 0.083 to 0.0927 µM; in experiment [2], 0.0694 to 0.0749 µM.
